Test results from paper PMC4448990 (Pharmacology Research & Perspectives, 2015).

Assays:
[1] = test system: transient Na+ current (INaT); details: ref Döser et al. [2013b], [2015]; cited from earlier work
Neurokinin, NK1 = experiment: in vitro selectivity profile; type: binding; details: eslicarbazepine 400 μmol/L
Opioid, Mu (h) = Opioid, Mu (h) (Homo sapiens, UniProt P35372); experiment: in vitro selectivity profile; type: binding
[2] = eslicarbazepine; ref Bialer and Soares-da-Silva [2012]; cited from earlier work
[3] = test system: Imidazoline, I2 [central]; experiment: in vitro selectivity profile; type: binding; details: eslicarbazepine 400 μmol/L
Sigma 1 = experiment: in vitro selectivity profile; type: binding; details: eslicarbazepine 400 μmol/L
[4] = target: human α2β2γ2 GABAA receptors (Homo sapiens, UniProt P18507+P47869+P47870); experiment: submaximal GABA currents in Ltk cells; type: cell-based
human α2β2γ2 GABAA receptors, sequence (P47869 29-451): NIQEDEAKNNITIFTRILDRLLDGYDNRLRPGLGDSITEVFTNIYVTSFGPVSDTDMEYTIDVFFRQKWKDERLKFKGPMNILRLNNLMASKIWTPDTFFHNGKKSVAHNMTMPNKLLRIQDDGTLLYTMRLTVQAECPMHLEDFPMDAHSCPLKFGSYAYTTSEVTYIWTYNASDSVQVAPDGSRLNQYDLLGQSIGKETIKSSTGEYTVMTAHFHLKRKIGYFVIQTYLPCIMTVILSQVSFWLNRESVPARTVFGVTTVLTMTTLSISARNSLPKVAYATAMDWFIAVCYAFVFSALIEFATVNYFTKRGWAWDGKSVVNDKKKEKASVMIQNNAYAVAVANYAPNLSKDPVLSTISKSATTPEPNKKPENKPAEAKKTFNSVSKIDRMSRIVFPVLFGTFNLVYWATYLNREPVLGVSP
human α2β2γ2 GABAA receptors, sequence (P47870 25-512 limits assumed): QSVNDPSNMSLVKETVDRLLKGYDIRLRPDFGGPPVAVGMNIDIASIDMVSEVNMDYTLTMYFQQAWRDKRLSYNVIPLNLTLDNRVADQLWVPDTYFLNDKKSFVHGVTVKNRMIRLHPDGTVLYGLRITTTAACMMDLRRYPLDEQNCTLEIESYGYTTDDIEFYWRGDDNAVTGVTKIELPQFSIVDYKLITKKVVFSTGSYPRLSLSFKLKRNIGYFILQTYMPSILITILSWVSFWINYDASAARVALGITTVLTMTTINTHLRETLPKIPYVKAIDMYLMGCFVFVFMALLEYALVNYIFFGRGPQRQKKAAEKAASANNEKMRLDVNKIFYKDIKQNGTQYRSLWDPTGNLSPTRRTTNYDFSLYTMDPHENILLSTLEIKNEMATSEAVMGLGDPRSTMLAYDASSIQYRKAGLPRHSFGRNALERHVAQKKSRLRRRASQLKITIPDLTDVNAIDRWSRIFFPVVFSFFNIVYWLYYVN
human α2β2γ2 GABAA receptors, sequence (P18507 40-475): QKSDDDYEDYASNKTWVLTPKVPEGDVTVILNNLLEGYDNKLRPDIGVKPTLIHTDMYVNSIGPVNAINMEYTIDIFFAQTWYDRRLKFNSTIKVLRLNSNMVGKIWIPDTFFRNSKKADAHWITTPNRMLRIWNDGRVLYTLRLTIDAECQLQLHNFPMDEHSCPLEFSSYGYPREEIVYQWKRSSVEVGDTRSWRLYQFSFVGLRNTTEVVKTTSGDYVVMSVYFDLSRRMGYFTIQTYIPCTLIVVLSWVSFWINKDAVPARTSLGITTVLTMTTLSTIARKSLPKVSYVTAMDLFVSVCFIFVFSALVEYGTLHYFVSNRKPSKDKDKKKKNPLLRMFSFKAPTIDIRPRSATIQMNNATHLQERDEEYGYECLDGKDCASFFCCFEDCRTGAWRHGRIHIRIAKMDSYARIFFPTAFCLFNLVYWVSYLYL

[5] = test system: Decarboxylase, glutamic acid; experiment: in vitro selectivity profile; type: biochemical; details: eslicarbazepine 400 μmol/L
[6] = test system: GABA A, BDZ, alpha 6 site; experiment: in vitro selectivity profile; type: binding; details: eslicarbazepine 400 μmol/L
Serotonin, 5HT1B = experiment: in vitro selectivity profile; type: binding; details: eslicarbazepine 400 μmol/L
[7] = test system: Serotonin, 5HT1, nonselective; experiment: in vitro selectivity profile; type: binding; details: eslicarbazepine 400 μmol/L
GABA-B = experiment: in vitro selectivity profile; type: binding; details: eslicarbazepine 400 μmol/L
P-glycoprotein = details: ref Fortuna et al. [2012]; cited from earlier work
[8] = cited from earlier work
[9] = target: Norepinephrine transporter (h) (Homo sapiens, UniProt P23975); experiment: in vitro selectivity profile; type: binding
Kinase, protein, Fyn (h) = Kinase, protein, Fyn (h) (Homo sapiens, UniProt P06241); experiment: in vitro selectivity profile; type: biochemical
Dopamine, D4.4 (h) = Dopamine, D4.4 (h) (Homo sapiens, UniProt P21917); experiment: in vitro selectivity profile; type: binding
Neurokinin, NK3 (NKB) = experiment: in vitro selectivity profile; type: binding; details: eslicarbazepine 400 μmol/L
[10] = target: Kinase, protein, CK1d (CSNK1D) (h) (Homo sapiens, UniProt P48730); experiment: in vitro selectivity profile; type: biochemical
Opioid, delta 2 (h) = Opioid, delta 2 (h) (Homo sapiens, UniProt P41143); experiment: in vitro selectivity profile; type: binding
[11] = target: human Nav1.3 sodium channels (Homo sapiens, UniProt Q9NY46); experiment: whole-cell patch clamp, Nav1.3 in CHO-K1 cells; type: cell-based; details: 250 μmol/L
human Nav1.3 sodium channels, sequence (Q9NY46 whole entry): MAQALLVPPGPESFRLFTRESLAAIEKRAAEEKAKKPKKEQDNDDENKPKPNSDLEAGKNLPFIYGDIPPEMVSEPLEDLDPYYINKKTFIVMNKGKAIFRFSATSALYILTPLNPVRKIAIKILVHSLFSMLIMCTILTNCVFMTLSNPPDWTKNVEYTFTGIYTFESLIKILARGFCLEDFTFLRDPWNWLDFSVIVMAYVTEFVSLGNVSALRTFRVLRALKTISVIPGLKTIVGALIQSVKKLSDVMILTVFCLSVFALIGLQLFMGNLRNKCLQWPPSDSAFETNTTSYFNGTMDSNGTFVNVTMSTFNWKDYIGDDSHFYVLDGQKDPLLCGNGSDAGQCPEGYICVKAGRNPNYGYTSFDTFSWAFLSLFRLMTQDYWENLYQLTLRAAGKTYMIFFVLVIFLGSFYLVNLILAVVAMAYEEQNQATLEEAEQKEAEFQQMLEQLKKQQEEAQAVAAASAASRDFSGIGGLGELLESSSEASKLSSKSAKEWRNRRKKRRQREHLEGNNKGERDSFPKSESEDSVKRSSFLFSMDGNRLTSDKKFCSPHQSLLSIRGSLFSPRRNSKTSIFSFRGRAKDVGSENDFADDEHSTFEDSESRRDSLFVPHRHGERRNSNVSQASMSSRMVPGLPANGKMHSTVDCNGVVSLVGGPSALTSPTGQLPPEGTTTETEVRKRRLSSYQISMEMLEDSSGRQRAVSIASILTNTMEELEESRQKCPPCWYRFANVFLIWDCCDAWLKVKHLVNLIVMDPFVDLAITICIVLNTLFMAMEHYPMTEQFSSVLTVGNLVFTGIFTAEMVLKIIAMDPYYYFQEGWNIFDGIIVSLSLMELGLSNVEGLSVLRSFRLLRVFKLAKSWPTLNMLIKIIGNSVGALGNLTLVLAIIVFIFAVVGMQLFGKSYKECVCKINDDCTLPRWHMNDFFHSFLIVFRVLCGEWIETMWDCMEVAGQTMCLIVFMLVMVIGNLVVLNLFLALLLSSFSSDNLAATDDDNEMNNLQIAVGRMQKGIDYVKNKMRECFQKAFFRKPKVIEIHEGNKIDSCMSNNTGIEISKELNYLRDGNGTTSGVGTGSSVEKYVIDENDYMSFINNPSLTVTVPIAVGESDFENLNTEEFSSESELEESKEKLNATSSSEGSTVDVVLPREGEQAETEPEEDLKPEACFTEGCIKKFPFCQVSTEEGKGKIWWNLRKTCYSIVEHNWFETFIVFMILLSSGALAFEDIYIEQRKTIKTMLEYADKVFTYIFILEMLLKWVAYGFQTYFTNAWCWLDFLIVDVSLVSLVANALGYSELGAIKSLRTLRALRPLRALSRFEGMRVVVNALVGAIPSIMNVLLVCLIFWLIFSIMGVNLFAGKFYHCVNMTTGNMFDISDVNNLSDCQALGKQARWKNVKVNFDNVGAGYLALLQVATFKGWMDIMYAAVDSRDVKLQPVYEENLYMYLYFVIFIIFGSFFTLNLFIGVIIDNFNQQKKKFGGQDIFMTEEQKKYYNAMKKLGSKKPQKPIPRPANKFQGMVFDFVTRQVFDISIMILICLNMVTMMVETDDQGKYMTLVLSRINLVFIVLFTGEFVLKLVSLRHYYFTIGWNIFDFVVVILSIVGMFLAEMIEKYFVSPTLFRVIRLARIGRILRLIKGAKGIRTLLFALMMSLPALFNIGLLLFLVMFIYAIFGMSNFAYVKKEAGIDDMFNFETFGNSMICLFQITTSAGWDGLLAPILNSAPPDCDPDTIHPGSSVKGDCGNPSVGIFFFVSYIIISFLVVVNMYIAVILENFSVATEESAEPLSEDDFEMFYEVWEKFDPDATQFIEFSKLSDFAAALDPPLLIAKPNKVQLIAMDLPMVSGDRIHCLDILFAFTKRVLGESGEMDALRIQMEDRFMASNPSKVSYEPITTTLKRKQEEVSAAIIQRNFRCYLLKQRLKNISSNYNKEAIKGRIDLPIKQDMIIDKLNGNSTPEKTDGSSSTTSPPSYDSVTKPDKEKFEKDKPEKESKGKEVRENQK

Adenosine, A2A (h) = Adenosine, A2A (h) (Homo sapiens, UniProt P29274); experiment: in vitro selectivity profile; type: binding
[12] = test system: Thyrotropin-releasing hormone, TRH; experiment: in vitro selectivity profile; type: binding; details: eslicarbazepine 400 μmol/L
Dopamine, D3 = experiment: in vitro selectivity profile; type: binding; details: eslicarbazepine 400 μmol/L
[13] = plasma and brain concentrations of eslicarbazepine after ESL; type: in vivo; details: mouse; for concentration at 60 min: 100 mg/kg; for concentration at 15 min: Amygdala kindling
[14] = test system: Corticotropin-releasing factor, nonselective; experiment: in vitro selectivity profile; type: binding; details: eslicarbazepine 400 μmol/L
[15] = target: Kinase, protein, ROCK2 (h) (Homo sapiens, UniProt O75116); experiment: in vitro selectivity profile; type: biochemical
Kinase, protein, ROCK2 (h), sequence (O75116 whole entry): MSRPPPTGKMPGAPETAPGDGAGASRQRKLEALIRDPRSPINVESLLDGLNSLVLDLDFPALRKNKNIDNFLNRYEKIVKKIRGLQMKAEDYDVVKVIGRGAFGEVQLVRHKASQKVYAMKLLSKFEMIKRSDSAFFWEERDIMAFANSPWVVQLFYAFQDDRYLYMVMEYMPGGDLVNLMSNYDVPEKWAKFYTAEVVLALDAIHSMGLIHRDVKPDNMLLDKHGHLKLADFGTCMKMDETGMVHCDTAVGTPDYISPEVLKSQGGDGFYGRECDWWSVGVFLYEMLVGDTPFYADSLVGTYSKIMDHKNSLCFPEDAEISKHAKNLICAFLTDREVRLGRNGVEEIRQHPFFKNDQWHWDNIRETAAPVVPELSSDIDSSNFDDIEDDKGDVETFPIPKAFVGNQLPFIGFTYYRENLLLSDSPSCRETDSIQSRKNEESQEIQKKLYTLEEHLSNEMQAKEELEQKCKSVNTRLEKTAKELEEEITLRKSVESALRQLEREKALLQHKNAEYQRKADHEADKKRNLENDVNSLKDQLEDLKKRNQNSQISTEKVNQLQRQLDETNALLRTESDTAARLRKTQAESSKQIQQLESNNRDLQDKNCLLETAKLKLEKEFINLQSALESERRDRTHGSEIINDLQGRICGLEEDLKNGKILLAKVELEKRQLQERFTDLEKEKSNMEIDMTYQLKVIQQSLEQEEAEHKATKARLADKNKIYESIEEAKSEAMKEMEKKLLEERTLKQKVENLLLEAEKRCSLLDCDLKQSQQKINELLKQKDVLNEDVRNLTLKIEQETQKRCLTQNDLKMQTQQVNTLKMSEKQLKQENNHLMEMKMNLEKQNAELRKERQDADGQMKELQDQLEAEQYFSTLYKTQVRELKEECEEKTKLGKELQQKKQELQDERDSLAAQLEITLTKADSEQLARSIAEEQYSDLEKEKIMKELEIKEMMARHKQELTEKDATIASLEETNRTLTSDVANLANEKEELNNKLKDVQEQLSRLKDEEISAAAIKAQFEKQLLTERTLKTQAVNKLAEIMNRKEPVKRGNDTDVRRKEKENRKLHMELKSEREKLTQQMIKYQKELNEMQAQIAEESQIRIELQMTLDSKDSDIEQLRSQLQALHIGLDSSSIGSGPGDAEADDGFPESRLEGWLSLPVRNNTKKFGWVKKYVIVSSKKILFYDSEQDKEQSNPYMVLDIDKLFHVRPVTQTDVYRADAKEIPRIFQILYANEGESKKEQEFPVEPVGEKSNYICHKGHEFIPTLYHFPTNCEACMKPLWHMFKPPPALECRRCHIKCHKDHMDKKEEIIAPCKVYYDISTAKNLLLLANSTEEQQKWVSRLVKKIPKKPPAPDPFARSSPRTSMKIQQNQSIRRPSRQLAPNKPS

[16] = test system: Nicotinic, neuronal [a-BnTx insensitive] (h); experiment: in vitro selectivity profile; type: binding, human; details: eslicarbazepine 400 μmol/L
Muscarinic, M1 (h) = Muscarinic, M1 (h) (Homo sapiens, UniProt P11229); experiment: in vitro selectivity profile; type: binding
Muscarinic, M4 (h) = Muscarinic, M4 (h) (Homo sapiens, UniProt P08173); experiment: in vitro selectivity profile; type: binding
[17] = target: Protease, caspase, CASP-3 (h) (Homo sapiens, UniProt P42574); experiment: in vitro selectivity profile; type: biochemical
[18] = target: Anhydrase, carbonic, isozyme II (h) (Homo sapiens, UniProt P00918); experiment: in vitro selectivity profile; type: biochemical
Adrenergic, alpha2A (h) = Adrenergic, alpha2A (h) (Homo sapiens, UniProt P08913); experiment: in vitro selectivity profile; type: binding
Serotonin, 5HT5A (h) = Serotonin, 5HT5A (h) (Homo sapiens, UniProt P47898); experiment: in vitro selectivity profile; type: binding
[19] = test system: Glutamate, NMDA, glycine (strychnine-insensitive); experiment: in vitro selectivity profile; type: binding; details: eslicarbazepine 400 μmol/L
Opioid, kappa 1 = experiment: in vitro selectivity profile; type: binding; details: eslicarbazepine 400 μmol/L
Adenosine, A1 (h) = Adenosine, A1 (h) (Homo sapiens, UniProt P30542); experiment: in vitro selectivity profile; type: binding
Adenosine, A1 (h), sequence (P30542 whole entry): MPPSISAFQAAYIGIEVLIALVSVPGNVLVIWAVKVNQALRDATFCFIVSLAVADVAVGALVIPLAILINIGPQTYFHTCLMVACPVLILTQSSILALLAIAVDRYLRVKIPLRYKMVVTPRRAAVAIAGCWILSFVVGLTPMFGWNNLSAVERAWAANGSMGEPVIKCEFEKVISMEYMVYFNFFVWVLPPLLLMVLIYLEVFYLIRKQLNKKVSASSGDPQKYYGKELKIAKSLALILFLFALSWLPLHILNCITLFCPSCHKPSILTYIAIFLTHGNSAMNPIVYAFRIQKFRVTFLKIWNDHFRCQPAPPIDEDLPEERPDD

Glutamate, MK-801 site = experiment: in vitro selectivity profile; type: binding; details: eslicarbazepine 400 μmol/L
[20] = target: Kinase, protein, GSK3b (h) (Homo sapiens, UniProt P49841); experiment: in vitro selectivity profile; type: biochemical
Dopamine, D2s (h) = Dopamine, D2s (h) (Homo sapiens, UniProt P14416); experiment: in vitro selectivity profile; type: binding

In the case of `NC(=O)N1c2ccccc2C[C@H](O)c2ccccc21` [eslicarbazepine], the “inhibition of firing of DGCs, control versus pilocarpine-treated rats” value [1] is listed as “equally effective in inhibiting firing of DGCs in control versus pilocarpine-treated rats”, the “% inhibition” value (Neurokinin, NK1) is listed as 12.58% and the inhibition at 400 µM (Opioid, Mu (h)) is listed as 0%. For the same molecule, the “binding to nonspecific proteins (protein binding)” value [2] was roughly 30%, the “% inhibition” value [3] was 17.45% and the “% inhibition” value (Sigma 1) was 28.43%. The “GABA inward current stimulation, α2β2γ2, Mean ± SEM” value ([4]; 50 μmol/L) was 91.6 ± 2.7, the “GABA inward current stimulation, α2β2γ2, Mean ± SEM” value ([4]; 100 μmol/L) was 97.0 ± 2.7 and the “GABA inward current stimulation, α2β2γ2, Mean ± SEM” value ([4]; 250 μmol/L) was 88.6 ± 3.2. The “effect on submaximal α2β2γ2 GABA currents” value ([4]; 250 μmol/L) was “slight decrease”, the “GABA inward current stimulation, α2β2γ2, Mean ± SEM” value ([4]; 500 μmol/L) was 89.8 ± 4.0 and the “effect on submaximal α2β2γ2 GABA currents” value ([4]; 50–500 μmol/L, exception at 250 μmol/L) was “did not significantly change submaximal GABA currents”. The “% inhibition” value [5] was 0.0%, the “% inhibition” value [6] was 0.0% and the “% inhibition” value (Serotonin, 5HT1B) was 2.1%. The “% inhibition” value [7] was 11.43%, the “% inhibition” value (GABA-B) was 11.72% and the “intestinal transport M–S versus S–M and sensitivity to verapamil” value (P-glycoprotein) was “of the same magnitude and insensitive to the P-glycoprotein inhibitor verapamil”. For the same molecule, the “CSF Cmax eslicarbazepine levels” value ([8]; 1200 mg QD oral ESL, ref Nunes et al. [2013]) was 30 µM, the “share of circulating active moieties after oral ESL” value ([8]; humans, ref Almeida and Soares-da-Silva [2007]) was roughly 95% and the “peak plasma concentrations of eslicarbazepine” value ([8]; oral ESL 1200 mg QD, ref Perucca et al. [2011]) was 90 µmol/L. The inhibition at 400 µM [9] was 9.33%, the inhibition at 400 µM (Kinase, protein, Fyn (h)) was 3.58% and the inhibition at 400 µM (Dopamine, D4.4 (h)) was 0%. For the same molecule, the “% inhibition” value (Neurokinin, NK3 (NKB)) was 0.0%, the inhibition at 400 µM [10] was 5.18% and the inhibition at 400 µM (Opioid, delta 2 (h)) was 7.91%. The “Fast inactivation V0.5” value ([11]; mean ± SEM, n = 3–6) was −40.68 ± 3.10 mV, the “Slow inactivation V0.5” value ([11]; mean ± SEM, n = 3–6) was −26.61 ± 2.74 mV and the “time constant for entering the slow inactivated state” value ([11]; control 20.29 sec) was 14.02 s. For the same molecule, the inhibition at 400 µM (Adenosine, A2A (h)) was 6.81%, the “% inhibition” value [12] was 16.14% and the “% inhibition” value (Dopamine, D3) was 0.0%. It also gave a Kp at 60 min ([13]; NMRI, Swiss, brain and plasma, other: oral or intraperitoneal) of 3.4 to 5.8, a concentration at 60 min ([13]; NMRI, brain (lipid fraction), intraperitoneal, Brain (lipid fraction) Eslicarbazepine, Corneal kindling, ESL 100 mg/kg i.p.) of 564 µM and a concentration at 15 min ([13]; NMRI, brain (lipid fraction), intraperitoneal, 200 mg/kg, Brain (lipid fraction) Eslicarbazepine, ESL 200 mg/kg i.p.) of 313 µM. For the same molecule, the concentration at 15 min ([13]; NMRI, brain (lipid fraction), intraperitoneal, 300 mg/kg, Brain (lipid fraction) Eslicarbazepine, ESL 300 mg/kg i.p.) was 489 µM, the concentration at 60 min ([13]; NMRI, brain (organic phase), intraperitoneal, Brain (organic phase) Eslicarbazepine, Corneal kindling, ESL 100 mg/kg i.p.) was 314 µM and the concentration at 15 min ([13]; NMRI, brain (organic phase), intraperitoneal, 200 mg/kg, Brain (organic phase) Eslicarbazepine, ESL 200 mg/kg i.p.) was 174 µM. The concentration at 15 min ([13]; NMRI, brain (organic phase), intraperitoneal, 300 mg/kg, Brain (organic phase) Eslicarbazepine, ESL 300 mg/kg i.p.) was 273 µM, the concentration at 60 min ([13]; Swiss, brain (lipid fraction), oral, Brain (lipid fraction) Eslicarbazepine, Latrunculin A-induced seizures, ESL 100 mg/kg p.o.) was 303 µM and the concentration at 60 min ([13]; Swiss, brain (organic phase), oral, Brain (organic phase) Eslicarbazepine, Latrunculin A-induced seizures, ESL 100 mg/kg p.o.) was 169 µM. For the same molecule, the “% inhibition” value [14] was 26.95%, the inhibition at 400 µM [15] was 8.54% and the “% inhibition” value [16] was 23.46%. The inhibition at 400 µM (Muscarinic, M1 (h)) was 0%, the inhibition at 400 µM (Muscarinic, M4 (h)) was 6.08% and the inhibition at 400 µM [17] was 0%. It also gave an inhibition at 400 µM [18] of 5.93%, an inhibition at 400 µM (Adrenergic, alpha2A (h)) of 15.6% and an inhibition at 400 µM (Serotonin, 5HT5A (h)) of 11.9%. The “% inhibition” value [19] was 13.21%, the “% inhibition” value (Opioid, kappa 1) was 5.39% and the inhibition at 400 µM (Adenosine, A1 (h)) was 32.3%. For the same molecule, the “% inhibition” value (Glutamate, MK-801 site) was 15.45%, the inhibition at 400 µM [20] was 4.32% and the inhibition at 400 µM (Dopamine, D2s (h)) was 0%.
